Measured values taken from patent US20240209456A1, “METHODS AND COMPOSITIONS RELATED TO CELL-CYCLE RNA's” (BETH ISRAEL DEACONESS MEDICAL CENTER, priority 2021, published 2024).
*1 amine or outer side, *2 acyl side, *3 side chain or, on linkers, in order; H or OH if unused. Where a SMILES comes first, the peptide text is derived from it. Bridges are numbered along the chain shown (N, C = ends). Roman numbers before positions name the chains, in order. [ ]: non-standard residue; d: D form. Actinocin(9to1) = Cc1c2oc3c(C)ccc(C(=O)[*:1])c3nc-2c(C(=O)[*:2])c(N)c1=O; NMeV = CN[C@H](C(=O)O)C(C)C; Sar = CNCC(=O)O

Test system: c-MYC SPEARs
Assay: qRT-PCR / strand-specific qRT-PCR of c-MYC SPEARs
Format: cell-based, human
Conditions: for response of total c-MYC SPEARs: HL-60 released from double thymidine block, 2 hrs, MG149 200 μM, TH1834 500 μM; for c-MYC SPEARs level upon transcription inhibitors: HL-60, DRB and ActD, FIG. 10C
Protocol: Total RNA isolation was carried out and all RNA samples used in this study were treated with DNase I (10 U of DNase I per 3 μg of total RNA; 37° C. for one hour; in the presence of RNase inhibitor). After DNase I treatment, RNA samples were extracted with acidic phenol (pH 4.3) to eliminate any remaining traces of DNA. cDNA syntheses were performed with Random Primers (Invitrogen) or gene-specific primers with Transcriptor Reverse Transcriptase (Roche Applied Science) according to the manufacturer's recommendation. cDNA was purified with a High Pure PCR Product Purification Kit (Roche Applied Science).
Sybr green reaction was performed using iQ Sybr Green supermix (Biorad, Hercules, CA) using the following parameters: 95° C. (10 min), 40 cycles of 95° C. (15 s) and 60° C. (1 min) 72° C. (1 min). TaqMan analysis was performed using Hotstart Probe One-step qRT-PCR master mix (USB) at the following conditions: 50° C. (10 min.), 95° C. (2 min.), and then 40 cycles of 95° C. (15 sec.) and 60° C. (60 sec.).
Primers used for strand-specific real-time RT PCR (Sybr): Reverse Transcriptase primer for c-MYC SPEARs: 5′-AACCGCATCCTTGTCCTGTGAGTA-3′ (SEQ ID NO: 1); PCR primers: Forward: 5′-ACAGGCAGACACATCTCAGGGCTA-3′ (SEQ ID NO: 2); Reverse: 5′-ATAGGGAGGAATGATAGAGGCATA-3′ (SEQ ID NO: 3); and Reverse Transcriptase primer for PU1 SPEARs: 5′-GGCTTTTGCTCTAACCCAAC-3′ (SEQ ID NO: 4); PCR primers: Forward: 5′-ACTATGCTGAAGACCCTACAC-3′ (SEQ ID NO: 5); Reverse: 5′-GCTCTAACCCAACAAATGCC-3′ (SEQ ID NO: 6).
Nascent RNA/DNA capture was performed using Click-iT Nascent RNA Capture Kit (ThermoFisher) according to the manufacturer's instructions with minor modifications. Briefly, 1. Labeling the cells with EU/EdU. 200 mM EU or 30 mM EdU stock solutions were added to the cells, to a final concentration 0.5 mM or 30 μM, respectively. 2. Incubation. The cells were incubated for 1 or 2 hours. 3. RNA/DNA isolation. The cells were harvested and the RNA/DNA were isolated and dissolved in 14 μL of H2O. 4. Biotinylation of RNA/DNA by Click reaction. Click-iT reaction cocktail (50 μL per reaction) was prepared accordingly to manufacturer's instructions: a mixture containing 1× Click-iT EU buffer; 2 mM CuSO4; 1 mM Biotin azide; 13.25 μL of the isolated RNA; 10 mM Click-iT reaction buffer additive 1; 12 mM Click-iT reaction buffer additive 2 was prepared. After adding each component, the reaction cocktail was gently mixed by vortexing. The addition of the Click-iT reaction buffer additive 1 stock initiates the click reaction between the EU-RNA/EdU-DNA and biotin azide. Afterwards the Click-iT® reaction buffer additive 2 is added and incubated for 30 minutes with gentle vortexing. 5. RNA/DNA precipitation. […]

SMILES | response of total c-MYC SPEARs | c-MYC SPEARs level upon transcription inhibitors
O=C(O)Cn1nnc(-c2ccc(CN(CCCCOc3ccc(CN4CCCC4)cc3)CCc3ccccc3)cc2)n1 [TH1834] | not affected | –
CCCCCCCc1ccc(CCc2cccc(O)c2C(=O)O)cc1 [MG149] | not affected | –
OC[C@H]1O[C@@H](n2cnc3cc(Cl)c(Cl)cc32)[C@H](O)[C@@H]1O [DRB, 5,6-Dichlorobenzimidazole 1-β-D-ribofuranoside] | – | negatively affected
Cc1c2oc3c(C)ccc(C(=O)N[C@@H]4C(=O)N[C@H](C(C)C)C(=O)N5CCC[C@H]5C(=O)N(C)CC(=O)N(C)[C@@H](C(C)C)C(=O)O[C@@H]4C)c3nc-2c(C(=O)N[C@@H]2C(=O)N[C@H](C(C)C)C(=O)N3CCC[C@H]3C(=O)N(C)CC(=O)N(C)[C@@H](C(C)C)C(=O)O[C@@H]2C)c(N)c1=O [ActD, Actinomycin D] (I: T[dV]P[Sar][NMeV] / II: T[dV]P[Sar][NMeV]; ester I:1-I:C, II:1-II:C; linker I:N-II:N via Actinocin(9to1)) | – | negatively affected
